What all share (assay type): cell-based, mouse
One assay relates to Nrf2. Nature of the assay: Nrf2 response in BMDMs (western blot, target genes). Particulars: 12 h treatment. Here is the method:
(§1) BMDM were prepared from 6- to 12-week-old mice as described 1 and cultured in RMPI-1640 medium supplemented with 10% fetal bovine serum (FBS), 2 mM L-glutamine, and 100 U/mL penicillin-streptomycin and mouse recombinant M-CSF ([…], Peprotech). For experiments, cells were seeded at concentration 10^6 cells/mL in tissue culture plates of various formats. The cells were treated with DI (250 μM (unless stated otherwise), cat #592498, Sigma), DMF (50 μM (unless stated otherwise), cat #242926, Sigma), 3-(ethoxycarbonyl)but-3-enoic acid (3MI, 5 μM, Aris Pharmaceuticals Inc.), 4-ethoxy-2-methylene-4-oxobutanoic acid (MI, Aris Pharmaceuticals Inc.) for 12 h and activated with lipopolysaccharide (LPS; 100 ng/mL; E. coli 0111:B4, Sigma) for 1 h or as indicated. In some experiments cells were stimulated with combination of LPS (20 ng/mL) and IFN-γ (50 ng/mL; Peprotech). In some experiments cells were treated with α-tocopherol (AT, 10 μM; Sigma), MitoTEMPO (MT, 500 μM; Sigma), N-acetylcysteine (NAC, 1 mM, Sigma), ethylester of GSH (EtGSH; 1 mM, Santa Cruz) or buthionene sulfoximine (BSO, 500 μM, Sigma) alone or in combination with DI for 12 h. […]
(§2) Cells were lysed in RIPA Lysis Buffer System (Santa Cruz) and heat-denatured at 95° C. for 5 min in reducing sample buffer (BioRad). […] Non-specific binding was blocked with 5% skim milk (or 5% BSA when phospho-proteins were analyzed), and membranes were probed with primary antibodies specific to Nrf2 (#12721), HO-1 (#70081), IκBζ (mouse specific, #93726), IκBζ(#9244), ATF3 (#D2Y5W), IRAK1 (#4504; sensitivity of IRAK1 detection diminishes upon IRAK1 K63 ubiquitination), phospho-IKK (Ser176/180, #2697), p62/SQSTM1 (#5114), phospho-eIF2α (Ser51, #9721), eIF2α (#5324) from Cell Signaling; GAPDH (sc-25778), IκBα (sc-1643), ATF3 (sc-188), SDHA (sc-166909) from Santa Cruz; NQO1 (ab28947) from Abeam, followed by incubation with anti-rabbit-HRP (1:10,000; sc-2030) or anti-mouse-HRP (1:10,000; sc-2031) from Santa Cruz and Clarity western ECL substrate (Bio-Rad). […]

For another assay, the system named is Nfkbiz mRNA. In words: Nfkbiz (Ikb-ζ) mRNA expression in BMDMs (qPCR). To be noted: DI 12 h, then LPS. On the procedure: as §1
RNA from cultured cells was isolated using a Total RNA I kit (OMEGA). […] Threshold cycle (CT) values for each sample were determined by automated threshold analysis. […]
On the technique in general: Quantitative PCR measures a nucleic acid by following its amplification.

For a further assay, the system named is ATF3. In words: ATF3 protein expression (western blot). To be noted: BMDMs, DI, also on Nrf2−/− background. On the procedure: as §1, §2
In general terms: Immunoblotting shows a protein as a band on a membrane.

From patent US20200375929A1, “METHODS AND COMPOSITIONS FOR THE TREATMENT OF DISEASES ASSOCIATED WITH CANCER, INFLAMMATION, OR IMMUNE RESPONSE” (Washington University, priority 2017, published 2020) come the findings set out here.

Structures are written as SMILES. “Also recorded” adds a separate entry of the source.

Regarding `C=C(CC(=O)OC)C(=O)OC` [DI, dimethyl itaconate], the “Nrf2 response (Nrf2 protein, target genes)” value in the assay with Nrf2 is on record as “triggered strong Nrf2 response; also recorded: increased”. Also, the “Ikb-ζ (Nfkbiz) mRNA level” value in the assay with Nfkbiz mRNA is on record as “only moderate effect; also recorded: not changed”. For the same molecule, in the assay on ATF3, the ATF3 protein entry was “upregulated”.
